Patent US20240277852A1, “INHIBITORS AND DEGRADERS OF PIP4K PROTEIN” (DANA-FARBER CANCER INSTITUTE, INC., priority 2021, published 2024)
pIC50, pKd: −log10 of the molar value.

Experiments:
[1] = biological target: PIP4K2C (Homo sapiens (Human), UniProt Q8TBX8); assay: KINOMEscan PIP5K2C (also known as PIP4K2C) Assay (Eurofins Discovery); type: binding
Description: (§1) The inhibitory activity of the compounds were evaluated using KINOMEscan® PIP5K2B (also known as PIP4K2B) and KINOMEscan® PIP5K2C (also known as PIP4k2C) Assays (Eurofins Discovery) following the manufacturer's standards.

[2] = biological target: PIP4K2B (Homo sapiens (Human), UniProt P78356); assay: KINOMEscan PIP5K2B (also known as PIP4K2B) Assay (Eurofins Discovery); type: binding
PIP4K2B, sequence (P78356 whole entry): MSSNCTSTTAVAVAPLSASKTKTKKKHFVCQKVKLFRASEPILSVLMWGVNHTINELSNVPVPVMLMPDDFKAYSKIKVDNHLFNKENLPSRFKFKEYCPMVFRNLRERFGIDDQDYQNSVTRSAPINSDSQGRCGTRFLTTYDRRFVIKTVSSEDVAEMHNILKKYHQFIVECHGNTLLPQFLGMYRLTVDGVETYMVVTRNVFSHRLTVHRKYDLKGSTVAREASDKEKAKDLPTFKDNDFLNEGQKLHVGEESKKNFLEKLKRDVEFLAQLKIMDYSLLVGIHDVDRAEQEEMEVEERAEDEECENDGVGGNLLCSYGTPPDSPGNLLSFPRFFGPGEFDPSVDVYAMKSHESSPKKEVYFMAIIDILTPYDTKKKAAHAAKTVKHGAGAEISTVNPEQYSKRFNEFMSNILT
Description: as §1

[3] = biological target: PIP4K2A (Homo sapiens (Human), UniProt P48426); assay: PIP4K2A inhibitory activity (Table 1); type: biochemical
PIP4K2A, sequence (P48426 whole entry, species assumed): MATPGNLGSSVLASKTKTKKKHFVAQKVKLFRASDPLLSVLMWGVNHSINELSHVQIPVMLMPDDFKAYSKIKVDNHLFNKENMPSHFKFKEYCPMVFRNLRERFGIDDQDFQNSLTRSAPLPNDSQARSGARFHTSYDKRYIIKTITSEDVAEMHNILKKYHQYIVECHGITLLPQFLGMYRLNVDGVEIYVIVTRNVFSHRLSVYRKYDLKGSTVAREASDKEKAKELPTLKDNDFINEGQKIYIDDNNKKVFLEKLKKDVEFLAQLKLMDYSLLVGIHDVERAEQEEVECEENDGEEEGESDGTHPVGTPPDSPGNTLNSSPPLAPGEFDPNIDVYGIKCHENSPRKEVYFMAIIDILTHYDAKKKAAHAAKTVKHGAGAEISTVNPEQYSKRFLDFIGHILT

PIP4K2C, sequence (Q8TBX8 whole entry): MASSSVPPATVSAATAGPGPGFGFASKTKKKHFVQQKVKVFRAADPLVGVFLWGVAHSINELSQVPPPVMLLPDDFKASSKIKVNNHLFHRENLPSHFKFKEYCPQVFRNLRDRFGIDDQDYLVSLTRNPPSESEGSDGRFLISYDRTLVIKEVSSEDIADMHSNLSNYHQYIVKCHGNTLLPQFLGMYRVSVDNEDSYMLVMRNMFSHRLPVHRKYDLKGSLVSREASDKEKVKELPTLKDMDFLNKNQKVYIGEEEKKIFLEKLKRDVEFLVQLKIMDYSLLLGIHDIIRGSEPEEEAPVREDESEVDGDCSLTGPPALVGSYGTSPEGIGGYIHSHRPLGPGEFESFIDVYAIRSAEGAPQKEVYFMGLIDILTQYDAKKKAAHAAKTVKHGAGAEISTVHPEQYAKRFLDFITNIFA

pKd [1]	pKd [2]	pIC50 [3]	Compound
9.35	< 5.00		O=C1CC[C@H]2COc3ncc(Nc4ncc(Cl)c(-c5cccc(-c6ccccc6)c5)n4)cc3N12 [Compound 15, (S)-2-((4-([1,1′-biphenyl]-3-yl)-5-chloropyrimidin-2-yl)amino)-6,6a,7,8-tetrahydro-9H-pyrido[2,3-b]pyrrolo[1,2-d][1,4]oxazin-9-one]
7.25	< 5.00	< 5.00	CC(=O)N(CC#N)S(=O)(=O)c1ccc(Nc2ncc(Cl)c(-c3cccc(-c4ccccc4)c3)n2)c(C)c1 [Compound 2]
7.68	< 5.00		O=C(Nc1cncc(Nc2ncc(Cl)c(-c3cccc(-c4ccccc4)c3)n2)c1)c1ccccc1 [Compound 13, N-(5-((4-([1,1′-biphenyl]-3-yl)-5-chloropyrimidin-2-yl)amino)pyridin-3-yl)benzamide]
8.14	< 5.00		CC(=O)Nc1cncc(Nc2ncc(Cl)c(-c3cccc(-c4ccccc4)c3)n2)c1 [Compound 11, N-(5-((4-([1,1′-biphenyl]-3-yl)-5-chloropyrimidin-2-yl)amino)pyridin-3-yl)acetamide]
7.19			Cc1ccc(C(N)=O)cc1Nc1ncc(Cl)c(-c2cccc(-c3ccccc3)c2)n1 [Compound 10, 3-((4-([1,1′-biphenyl]-3-yl)-5-chloropyrimidin-2-yl)amino)-4-methylbenzamide]
7.34			Cc1cc(C(N)=O)ccc1Nc1ncc(Cl)c(-c2cccc(-c3ccccc3)c2)n1 [Compound 5, 4-((4-([1,1′-biphenyl]-3-yl)-5-chloropyrimidin-2-yl)amino)-3-methylbenzamide]
7.42	< 5.00		O=C(Nc1cncc(Nc2ncc(Cl)c(-c3cccc(-c4cccnc4)c3)n2)c1)c1ccccc1 [Compound 14]
6.57			CC(=O)Nc1ccc(Nc2ncc(Cl)c(-c3cccc(-c4ccccc4)c3)n2)c(C)c1 [Compound 8, N-(4-((4-([1,1′-biphenyl]-3-yl)-5-chloropyrimidin-2-yl)amino)-3-methylphenyl)acetamide]
7.37			Cc1cc(NS(C)(=O)=O)ccc1Nc1ncc(Cl)c(-c2cccc(-c3ccccc3)c2)n1 [Compound 6, N-(4-((4-([1,1′-biphenyl]-3-yl)-5-chloropyrimidin-2-yl)amino)-3-methylphenyl)methanesulfonamide]
7.54	< 5.00	5.06	CC(=O)N(C)S(=O)(=O)c1ccc(Nc2ncc(Cl)c(-c3cccc(-c4ccccc4)c3)n2)c(C)c1 [Compound 3, N-((4-((4-([1,1′-biphenyl]-3-yl)-5-chloropyrimidin-2-yl)amino)-3-methylphenyl)sulfonyl)-N-methylacetamide]
7.19	< 5.00	< 5.00	NS(=O)(=O)c1ccc(Nc2ncc(Cl)c(-c3cccc(-c4ccccc4)c3)n2)cc1 [Compound 4]
6.82			Cc1ccc(NS(C)(=O)=O)cc1Nc1ncc(Cl)c(-c2cccc(-c3ccccc3)c2)n1 [Compound 7, N-(3-((4-([1,1′-biphenyl]-3-yl)-5-chloropyrimidin-2-yl)amino)-4-methylphenyl)methanesulfonamide]
7.44	< 5.00	< 5.00	Cc1cc(S(N)(=O)=O)ccc1Nc1ncc(Cl)c(-c2cccc(-c3ccccc3)c2)n1 [Compound 1]
6.85	< 5.00		O=C(Nc1cccc(Nc2ncc(Cl)c(-c3cccc(-c4ccccc4)c3)n2)c1)c1ccccc1 [Compound 12, N-(3-((4-([1,1′-biphenyl]-3-yl)-5-chloropyrimidin-2-yl)amino)phenyl)benzamide]
7.38	< 5.00		Cc1ncsc1-c1ccc([C@H](C)NC(=O)[C@@H]2C[C@@H](O)CN2C(=O)[C@@H](NC(=O)CCCCCC(=O)N2CCC3(CC2)CCN(c2cncc(Nc4ncc(Cl)c(-c5cccc(-c6ccccc6)c5)n4)c2)C3=O)C(C)(C)C)cc1 [Compound 57]
6.34			O=C(COc1cccc2c1C(=O)N(C1CCC(=O)NC1=O)C2=O)NCCOCCOCCNS(=O)(=O)c1ccc(Nc2ncc(Cl)c(-c3cccc(-c4ccccc4)c3)n2)cc1 (centres unmarked) [Compound 36, N-(2-(2-(2-((4-((4-([1,1′-biphenyl]-3-yl)-5-chloro-1|4-pyrimidin-2-yl)amino)phenyl)sulfonamido)ethoxy)ethoxy)ethyl)-2-((2-(2,6-dioxopiperidin-3-yl)-1,3-dioxoisoindolin-4-yl)oxy)acetamide]
5.85	< 5.00		CC(=O)Nc1ccc(C)c(Nc2ncc(Cl)c(-c3cccc(-c4ccccc4)c3)n2)c1 [Compound 9, N-(3-((4-([1,1′-biphenyl]-3-yl)-5-chloropyrimidin-2-yl)amino)-4-methylphenyl)acetamide]
6.21	< 5.00		Cc1ncsc1-c1ccc(CNC(=O)[C@@H]2C[C@@H](O)CN2C(=O)[C@@H](NC(=O)C2(F)CC2)C(C)(C)C)c(OCCCCCCC(=O)N2CCC3(CC2)CCN(c2cncc(Nc4ncc(Cl)c(-c5cccc(-c6ccccc6)c5)n4)c2)C3=O)c1 [Compound 56, (2S,4R)—N-(2-((7-(2-(5-((4-([1,1′-biphenyl]-3-yl)-5-chloropyrimidin-2-yl)amino)pyridin-3-yl)-1-oxo-2,8-diazaspiro[4,5]decan-8-yl)-7-oxoheptyl)oxy)-4-(4-methylthiazol-5-yl)benzyl)-1-((S)-2(1-fluorocyclopropane-1-carboxamido)-3,3-dimethylbutanoyl)-4-hydroxypyrrolidine-2-carboxamide]
6.96			CC(=O)N[C@H](C(=O)N1C[C@H](O)C[C@H]1C(=O)N[C@@H](C)c1ccc(-c2scnc2C)cc1OCCCCCNC(=O)CCC(=O)Nc1cncc(Nc2ncc(Cl)c(-c3cccc(-c4ccccc4)c3)n2)c1)C(C)(C)C [Compound 53, N1-(5-((4-([1,1′-biphenyl]-3-yl)-5-chloropyrimidin-2-yl)amino)pyridin-3-yl)-N4-(5-(2-((S)-1-((2S,4R)-1-((S)-2-acetamido-3,3-dimethylbutanoyl)-4-hydroxypyrrolidine-2-carboxamido)ethyl)-5-(4-methylthiazol-5-yl)phenoxy)pentyl)succinimide]
